Common to all, as to test: growth of human tumour cells (NCI), 48 h
The test system of experiment [1] is A549 NSCLC.
In experiment [2] the test system is HT29 colon.
Experiment [3] relates to K-562 leukemia.
Experiment [4] concerns MOLT-4 leukemia.
In experiment [5] the test system is NCI-H460 lung.
Experiment [6] relates to RXF 393 renal.
Experiment [7] concerns SF-268 CNS.
Experiment [8] has as its system SF-539 CNS.
For experiment [9], the system named is SK-MEL-28 melanoma.

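Tested at 5 concentrations; 48 h exposure; 96-well plates; endpoints linearly interpolated, else capped at highest concentration. Here, GI50 denotes the concentration required for 50% inhibition of growth. TGI: total growth inhibition.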 Where only a bound is given, the exact number is not on record here.

Regarding `CN1c2ccccc2N(C(=O)c2ccc([N+](=O)[O-])cc2)C(CC(=O)O)c2cccn21` (stereo not drawn), the TGI in [1], in [2], in [3], in experiment [4], in experiment [5] and in experiment [6] was > 100 µM each time. Further, the TGI in experiment [7], in [8] and in experiment [9] was > 100 µM throughout.

Take `Cn1c2c(c3ccccc31)CCN(CCCCN1CCCCC1)C2=O`: the TGI in experiment [1], in experiment [2], in experiment [3], in experiment [4], in experiment [5] and in [6] was > 100 µM throughout. Further, the TGI in experiment [7], in experiment [8] and in experiment [9] was > 100 µM each time.

As for `O=C(/C=C/c1cc(Cl)cc(Cl)c1O)c1cccc(O)c1`, the TGI is > 100 µM in experiment [1]; > 100 µM in [2]; > 100 µM in experiment [3]; 46.6 µM in [4]; > 100 µM in [5]; > 100 µM in [6]. Also, the TGI is > 100 µM in experiment [7], 73.3 µM in [8] and > 100 µM in experiment [9].

On to `O=C(NCCCCCCCCCCCCNC(=O)c1cccc2ccccc12)c1cccc2ccccc12`, for which the TGI in [1], in experiment [2], in experiment [3], in experiment [4], in experiment [5] and in experiment [6] was > 100 µM in each case. In addition, the TGI in experiment [7] was > 100 µM; in [8], 4.73 µM; in [9], > 100 µM.

`Cc1c(Cl)cccc1NC(=O)C(=O)C(C(=O)c1ccccc1-c1ccccc1)C1OC(=O)c2ccccc21` (stereo not drawn): the TGI in experiment [1] was 66.8 µM; in experiment [2] it was > 100 µM; in experiment [3] it was > 100 µM; in [4], 57.8 µM; in experiment [5], 76.3 µM; in experiment [6] it was 27.1 µM. Further, the TGI in experiment [7] came out at 61.7 µM; in experiment [8], 28.1 µM; in experiment [9] it was 44.7 µM.

Turning to `COC(=O)CCC(NC(=S)N/N=C(\C)c1cnc2ccccc2n1)C(=O)OC` (stereo not drawn), the TGI in experiment [1] was > 100 µM; in experiment [2], 31.3 µM; in experiment [3], > 100 µM; in [4], 59.4 µM; in experiment [5], > 100 µM; in experiment [6], 86 µM. The TGI in [7], in [8] and in experiment [9] was > 100 µM each time.

Turning to `CN1C(=O)CCC1(O)C1C=CC=CC1` (stereo not drawn), the TGI in experiment [1], in [2], in experiment [3], in [4], in [5] and in [6] was > 100 µM each time. For the same molecule, the TGI in experiment [7], in experiment [8] and in [9] was > 100 µM each time.

Consider `COC(=O)C(C(=O)C(=O)Nc1c(C)cccc1C)c1cnc2ccccc2n1` (stereo not drawn), for which the TGI in experiment [1], in experiment [2], in [3], in [4], in experiment [5] and in experiment [6] was > 100 µM throughout. Besides, the TGI in experiment [7] and in experiment [9] was > 100 µM each time.

Consider `CN(C)C=Nc1ccn(CCO)c(=O)n1`, for which the TGI in experiment [1], in experiment [2], in experiment [3], in experiment [4], in [5] and in experiment [6] was > 100 µM in each case. For the same molecule, the TGI in [7], in experiment [8] and in [9] was > 100 µM in each case.

For `Cc1cc(NCCCCCCCCNc2cc(C)nc3cc(N)ccc23)c2ccc(N)cc2n1`, the TGI is > 100 µM in [1]; 75 µM in experiment [2]; 16.3 µM in [3]; > 100 µM in experiment [4]; 49.5 µM in [5]; > 100 µM in experiment [6]. Besides, the TGI in experiment [7] is > 100 µM; in experiment [8], 41.2 µM; in experiment [9], 48.3 µM.

For the molecule `CC(=O)OCC1OC(n2cc(F)c(=O)[nH]c2=O)C(NC(=O)N(CCCl)N=O)C(OC(C)=O)C1OC(C)=O` (stereo not drawn), the TGI in [1], in experiment [2], in experiment [3], in experiment [4], in [5] and in experiment [7] was > 100 µM in each case. Also, the TGI in experiment [8] and in experiment [9] was > 100 µM throughout.

Regarding `C/C(=C1/N=C(c2cc([N+](=O)[O-])ccc2Cl)N(c2cccc(C)c2)C1=O)c1cc2ccccc2oc1=O`, the TGI in experiment [1], in [2], in experiment [3], in [4], in [5] and in [6] was > 100 µM each time. The TGI in experiment [7] and in experiment [9] was > 100 µM throughout.

As for `CC1=Nc2ccccc2S/C1=C(/C)NNS(=O)(=O)c1ccc(C)cc1`, the TGI in [1], in experiment [2], in [3], in experiment [4], in experiment [5] and in [6] was > 100 µM throughout. Moreover, the TGI in experiment [7], in experiment [8] and in experiment [9] was > 100 µM in each case.

For the molecule `CCOC(=O)/C(=C/N1CCN(C(=O)c2ccco2)C1=S)C(=O)c1ccccc1`, the GI50 in experiment [1] is 11.6 µM; in experiment [2], 19.2 µM; in [3], 15.7 µM; in [4], 19.6 µM; in experiment [5], 4.87 µM; in [7], 7.18 µM. Also, the GI50 in experiment [9] was 22.2 µM. Besides, the TGI in [1] is 36.3 µM; in experiment [2] it was > 50 µM; in [3] it was > 50 µM; in experiment [4], > 50 µM; in [5], 15.4 µM; in experiment [7] it was 19.9 µM. The TGI in [9] is > 50 µM.

The values above are taken from PubChem BioAssay (NCI).
